# In US9399626B2, “2-thiopyrimidinones” (Pfizer Inc., priority 2011, dated 2016):
# Structures can show the parent of a compound that is named as a salt.
# Molecular target: T1, MPO (purified from human polynuclear leukocytes) (Homo sapiens, UniProt P05164)
# T1 construct: purified from human polynuclear leukocytes; purchased Calbiochem/EMD Biosciences; host or cells: human polynuclear leukocytes (natural source)
# Assay: MPO Amplex Red Activity Assay
# Assay type: biochemical
# Details: Table 1, 2 μM H2O2, pH 7.4
# Outline: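 Human leukocyte MPO […] oxidises 30 μM Amplex Red with 2 μM H2O2 in 50 mM NaPi pH 7.4, 150 mM NaCl, 1 mM DTPA, 2% DMSO. Resorufin fluorescence (ex 530/em 580 nm) read every 20 s, minus catalase background. kobs from the first 600 s, corrected for auto-inactivation, fit versus [I] for kinact/KI.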
# T1 sequence (P05164 279-745 limits assumed): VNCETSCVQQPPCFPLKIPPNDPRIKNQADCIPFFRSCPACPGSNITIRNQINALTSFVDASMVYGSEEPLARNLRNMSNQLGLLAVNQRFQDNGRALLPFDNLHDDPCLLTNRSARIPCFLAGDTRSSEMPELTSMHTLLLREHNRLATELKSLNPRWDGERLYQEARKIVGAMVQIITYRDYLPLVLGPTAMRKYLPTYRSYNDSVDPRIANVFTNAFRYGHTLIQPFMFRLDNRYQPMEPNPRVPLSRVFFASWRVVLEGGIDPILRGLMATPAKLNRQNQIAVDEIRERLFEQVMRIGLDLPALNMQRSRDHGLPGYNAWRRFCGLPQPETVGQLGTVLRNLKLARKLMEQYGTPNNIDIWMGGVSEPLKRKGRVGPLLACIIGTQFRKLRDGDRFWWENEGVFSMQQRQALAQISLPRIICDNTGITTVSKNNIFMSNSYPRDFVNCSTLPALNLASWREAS
# T1 sequence (P05164 165-273 limits assumed): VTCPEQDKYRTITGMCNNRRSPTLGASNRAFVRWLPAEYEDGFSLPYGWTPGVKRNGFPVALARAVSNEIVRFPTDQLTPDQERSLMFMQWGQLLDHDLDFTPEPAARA
row,SMILES,MPO kinact/Ki
1,"COc1ccc(-c2cc(=O)[nH]c(=S)n2CC2CCNC2)c(OC)c1 (stereo not shown) [Example 212, 6-(2,4-dimethoxyphenyl)-1-(pyrrolidin-3-ylmethyl)-2-thioxo-2,3-dihydropyrimidin-4(1H)-one hydrochloride]",7590 1/s per M
2,"COCCn1c(-c2cn(C)c3ccccc23)cc(=O)[nH]c1=S [Example 67, 1-(2-methoxyethyl)-6-(1-methyl-1H-indol-3-yl)-2-thioxo-2,3-dihydropyrimidin-4(1H)-one]",7520 1/s per M
3,"COCCn1c(-c2ccc(C#N)cc2)cc(=O)[nH]c1=S [Example 13, 4-[3-(2-methoxyethyl)-6-oxo-2-thioxo-1,2,3,6-tetrahydro-pyrimidin-4-yl]benzonitrile]",745 1/s per M
4,"COCCn1c(-c2cc(C(C)C)c(F)cc2OC)cc(=O)[nH]c1=S [Example 344, 6-(4-fluoro-5-isopropyl-2-methoxyphenyl)-1-(2-methoxyethyl)-2-thioxo-2,3-dihydropyrimidin-4(1H)-one]",8480 1/s per M
5,"COc1ccc(-c2cc(=O)[nH]c(=S)n2Cc2ccn(C(N)=S)n2)c(OC)c1 [Example 261, 3-{[6-(2,4-dimethoxyphenyl)-4-oxo-2-thioxo-3,4-dihydropyrimidin-1(2H)-yl]methyl}-1H-pyrazole-1-carbothioamide]",2280 1/s per M
6,"COCCn1c(-c2cc3ccccc3cc2OC)cc(=O)[nH]c1=S [Example 117, 1-(2-methoxyethyl)-6-(3-methoxy-2-naphthyl)-2-thioxo-2,3-dihydropyrimidin-4(1H)-one]",11400 1/s per M
7,"CCOc1ccc(-c2cc(=O)[nH]c(=S)n2CCOC)cn1 [Example 313, 6-(6-ethoxypyridin-3-yl)-1-(2-methoxyethyl)-2-thioxo-2,3-dihydropyrimidin-4(1H)-one]",973 1/s per M
8,"COCCn1c(-c2cccc3ccsc23)cc(=O)[nH]c1=S [Example 73, 6-(1-benzothien-7-yl)-1-(2-methoxyethyl)-2-thioxo-2,3-dihydropyrimidin-4(1H)-one]",9870 1/s per M
9,"COCCn1c(-c2ccn[nH]2)cc(=O)[nH]c1=S [Example 278, 1-(2-methoxyethyl)-6-(1H-pyrazol-5-yl)-2-thioxo-2,3-dihydropyrimidin-4(1H)-one]",1560 1/s per M
10,"COCCn1c(-c2ccccn2)cc(=O)[nH]c1=S [Example 10, 1-(2-Methoxyethyl)-6-(pyridin-2-yl)-2-thioxo-2,3-dihydropyrimidin-4(1H)-one]",619 1/s per M
11,"NCCCn1c(-c2ccccc2OCCO)cc(=O)[nH]c1=S [Example 88, 1-(3-aminopropyl)-6-[2-(2-hydroxyethoxy)phenyl]-2-thioxo-2,3-dihydropyrimidin-4(1H)-one hydrochloride]",898 1/s per M
12,"O=c1cc(-c2csc3ccccc23)n(CCO)c(=S)[nH]1 [Example 39, 6-(1-benzothien-3-yl)-1-(2-hydroxyethyl)-2-thioxo-2,3-dihydropyrimidin-4(1H)-one]",4520 1/s per M
13,"COCCn1c(-c2ccc3[nH]ccc3c2)cc(=O)[nH]c1=S [Example 303, 6-(1H-indol-5-yl)-1-(2-methoxyethyl)-2-thioxo-2,3-dihydropyrimidin-4(1H)-one]",5270 1/s per M
14,"COc1ccc(Cl)cc1-c1cc(=O)[nH]c(=S)n1CC1CCNCC1 [Example 132, 6-(5-chloro-2-methoxyphenyl)-1-(piperidin-4-ylmethyl)-2-thioxo-2,3-dihydropyrimidin-4(1H)-one hydrochloride]",3840 1/s per M

# Further lines, results first:
row,MPO kinact/Ki,SMILES
1,6570 1/s per M,"COc1cc(OC)cc(-c2cc(=O)[nH]c(=S)n2CCN)c1 [Example 48, 1-(2-aminoethyl)-6-(3,5-dimethoxyphenyl)-2-thioxo-2,3-dihydropyrimidin-4(1H)-one hydrochloride]"
2,8090 1/s per M,"COc1cccc(-c2cc(=O)[nH]c(=S)n2CCO)c1 [Example 155, 1-(2-hydroxyethyl)-6-(3-methoxyphenyl)-2-thioxo-2,3-dihydropyrimidin-4(1H)-one]"
3,3180 1/s per M,"COc1ccc(F)cc1-c1cc(=O)[nH]c(=S)n1CCN.Cl [Example 26, 1-(2-aminoethyl)-6-(5-fluoro-2-methoxyphenyl)-2-thioxo-2,3-dihydropyrimidin-4(1H)-one hydrochloride]"
4,20500 1/s per M,"COc1ccc(-c2cc(=O)[nH]c(=S)n2CCCN=C(N)N)c(OC)c1 [Example 270, 2-{3-[6-(2,4-dimethoxyphenyl)-4-oxo-2-thioxo-3,4-dihydropyrimidin-1(2H)-yl]propyl}guanidine trifluoroacetate]"
5,2160 1/s per M,"COc1ccc(-c2cc(=O)[nH]c(=S)n2C[C@H](C)N)c(OC)c1 [Example 176, 1-[(2S)-2-aminopropyl]-6-(2,4-dimethoxyphenyl)-2-thioxo-2,3-dihydropyrimidin-4(1H)-one hydrochloride]"
6,8920 1/s per M,"COc1ccc(OC)c(-c2cc(=O)[nH]c(=S)n2CCN)c1 [Example 166, 1-(2-aminoethyl)-6-(2,5-dimethoxyphenyl)-2-thioxo-2,3-dihydropyrimidin-4(1H)-one hydrochloride]"
7,4730 1/s per M,"COCCn1c(-c2cc(OC)c(C)cc2OC)cc(=O)[nH]c1=S [Example 275, 6-(2,5-dimethoxy-4-methylphenyl)-1-(2-methoxyethyl)-2-thioxo-2,3-dihydropyrimidin-4(1H)-one]"
8,6880 1/s per M,"COc1ccccc1-c1cc(=O)[nH]c(=S)n1CCN [Example 11, 1-(2-aminoethyl)-6-(2-methoxyphenyl)-2-thioxo-2,3-dihydropyrimidin-4(1H)-one hydrochloride]"
9,5800 1/s per M,"COc1cc(OC)c(-c2cc(=O)[nH]c(=S)n2CCCN)cc1F [Example 108, 1-(3-aminopropyl)-6-(5-fluoro-2,4-dimethoxyphenyl)-2-thioxo-2,3-dihydropyrimidin-4(1H)-one hydrochloride]"
10,5240 1/s per M,"NCCCn1c(-c2ccc3c(c2)CCO3)cc(=O)[nH]c1=S [Example 38, 1-(3-aminopropyl)-6-(2,3-dihydro-1-benzofuran-5-yl)-2-thioxo-2,3-dihydropyrimidin-4(1H)-one hydrochloride]"
11,11600 1/s per M,"COc1cc(OC)c(-c2cc(=O)[nH]c(=S)n2CCN)cc1F [Example 90, 1-(2-aminoethyl)-6-(5-fluoro-2,4-dimethoxyphenyl)-2-thioxo-2,3-dihydropyrimidin-4(1H)-one hydrochloride]"
12,1960 1/s per M,"COc1ncc(C)cc1-c1cc(=O)[nH]c(=S)n1CCN [Example 19, 1-(2-aminoethyl)-6-(2-methoxy-5-methylpyridin-3-yl)-2-thioxo-2(3-dihydropyrimidin-4(1H)-one trifluoroacetate]"
13,745 1/s per M,"COc1ccc(-c2cc(=O)[nH]c(=S)n2CCCSC)c(OC)c1 [Example 227, 6-(2,4-dimethoxyphenyl)-1-[3-(methylthio)propyl]-2-thioxo-2,3-dihydropyrimidin-4(1H)-one]"

# Same assay, conditions: Table 1A, 2 μM H2O2, pH 7.4
row,MPO kinact/Ki,SMILES
1,2280 1/s per M,"COc1ccc(-c2cc(=O)[nH]c(=S)n2CCN)cc1OC [Example 360, 1-(2-aminoethyl)-6-(3,4-dimethoxyphenyl)-2-thioxo-2,3-dihydropyrimidin-4(1H)-one]"
2,4950 1/s per M,"CC(=O)OCCOc1ccc(F)cc1-c1cc(=O)[nH]c(=S)n1CC(N)=O [Example 421, 2-{2-[3-(2-amino-2-oxoethyl)-6-oxo-2-thioxo-1,2,3,6-tetrahydropyrimidin-4-yl]-4-fluorophenoxy}ethyl acetate]"
3,11500 1/s per M,"COc1cc(C)ccc1-c1cc(=O)[nH]c(=S)n1CC(N)=O [Example 418, 2-[6-(2-methoxy-4-methylphenyl)-4-oxo-2-thioxo-3,4-dihydropyrimidin-1(2H)-yl]acetamide]"
4,9280 1/s per M,"COc1cc(Cl)ccc1-c1cc(=O)[nH]c(=S)n1CC(N)=O [Example 417, 2-[6-(4-chloro-2-methoxyphenyl)-4-oxo-2-thioxo-3,4-dihydropyrimidin-1(2H)-yl]acetamide]"
5,13400 1/s per M,"O=c1cc(-c2cc(Cl)ccc2OCCO)n(CCO)c(=S)[nH]1 [Example 425, 6-[5-chloro-2-(2-hydroxyethoxy)phenyl]-1-(2-hydroxyethyl)-2-thioxo-2,3-dihydropyrimidin-4(1H)-one]"
6,3150 1/s per M,"COc1ccc(-c2cc(=O)[nH]c(=S)n2CC(N)=O)cc1 [Example 410, 2-[6-(4-methoxyphenyl)-4-oxo-2-thioxo-3,4-dihydropyrimidin-1(2H)-yl]acetamide]"
7,9290 1/s per M,"CSc1ccccc1-c1cc(=O)[nH]c(=S)n1CC(N)=O [Example 365, 2-{6-[2-(methylsulfanyl)phenyl]-4-oxo-2-thioxo-3,4-dihydropyrimidin-1(2H)yl}acetamide]"
8,7330 1/s per M,"COc1ccc(-c2cc(=O)[nH]c(=S)n2CC(=O)NCC(F)(F)CN)c(OC)c1 [Example 443, N-(3-amino-2,2-difluoropropyl)-2-[6-(2,4-dimethoxyphenyl)-4-oxo-2-thioxo-3,4-dihydropyrimidin-1(2H)-yl]acetamide]"
9,3630 1/s per M,"NC(=O)Cn1c(-c2ccccc2OCCO)cc(=O)[nH]c1=S [Example 349, 2-(6-(2-(2-Hydroxyethoxy)phenyl)-4-oxo-2-thioxo-3,4-dihydropyrimidin-1(2H)-yl)acetamide]"
10,3530 1/s per M,"COc1ccc(-c2cc(=O)[nH]c(=S)n2CC(=O)NCCO)c(OC)c1 [Example 385, 2-[6-(2,4-dimethoxyphenyl)-4-oxo-2-thioxo-3,4-dihydropyrimidin-1(2H)-yl]-N-(2-hydroxyethyl)acetamide]"
